Consider three molecules from article PMC7756392, “Syntheses of Thailandepsin B Pseudo‐Natural Products: Access to New Highly Potent HDAC Inhibitors via Late‐Stage Modification” (Chemistry (Weinheim an Der Bergstrasse, Germany), 2020).

The target of one assay is T1, human recombinant HDAC1 (Homo sapiens, UniProt Q13547).
T1 construct: purchased BPS Bioscience 50051
The assay is described as follows: ZMAL trypsin assay, HDAC1. In kind it is biochemical. As to conditions: ZMAL trypsin assay. Here is the method:
[28] Assays for HDAC1/6 were prepared according to: B. Heltweg , J. Trapp , M. Jung , Methods 2005, 36, 332–337; assays for HDAC8 were prepared according to: J. Senger , J. Melesina , M. Marek , C. Romier , I. Oehme , O. Witt , W. Sippl , M. Jung , J. Med. Chem. 2016, 59, 1545–1555. […]
hHDAC1/6: Activity assays were performed in OptiPlateTM-96 F black microplates (PerkinElmer). Commercial available enzymes (human recombinant HDAC1; BPS Bioscience, catalog no. 50051 and human recombinant HDAC6; BPS Bioscience, catalog no. 50006) were used. Total assay volume of 60 µL contains 42 µl of assay buffer (50 mM Tris -HCl, pH 8.0, 137 mM NaCl, 2.7 mM KCl, 1 mM MgCl2, 0.2 mM TCEP and 1 mg/mL bovine serum albumin), 10 µL of enzyme solution in assay buffer, 3 µL of increasing concentrations of inhibitors in DMSO and 5 μL of the fluorogenic substrate ZMAL (Z -(Ac)Lys-AMC) (126 μM). After incubation (90 min, 37 °C) 60 µL of stop solution, containing 5 μL Trichostatin A (TSA) (33 μM) and 10 μL trypsin (6 mg/mL) in trypsin buffer (Tris-HCl 50 mM, pH 8.0, NaCl 100 mM), were added. […]

For a further assay, the system named is HeLa cells. The experiment in a line: MTS cell viability assay, HeLa. The class given is cell-based. As to conditions: for GI50 (in words): MTS assay, 72 h. Here is the method:
hHDAC1/6: Activity assays were performed in OptiPlateTM-96 F black microplates (PerkinElmer). Commercial available enzymes (human recombinant HDAC1; BPS Bioscience, catalog no. 50051 and human recombinant HDAC6; BPS Bioscience, catalog no. 50006) were used. Total assay volume of 60 µL contains 42 µl of assay buffer (50 mM Tris -HCl, pH 8.0, 137 mM NaCl, 2.7 mM KCl, 1 mM MgCl2, 0.2 mM TCEP and 1 mg/mL bovine serum albumin), 10 µL of enzyme solution in assay buffer, 3 µL of increasing concentrations of inhibitors in DMSO and 5 μL of the fluorogenic substrate ZMAL (Z -(Ac)Lys-AMC) (126 μM). After incubation (90 min, 37 °C) 60 µL of stop solution, containing 5 μL Trichostatin A (TSA) (33 μM) and 10 μL trypsin (6 mg/mL) in trypsin buffer (Tris-HCl 50 mM, pH 8.0, NaCl 100 mM), were added. After incubation (30 min at 37 °C) fluorescence signal (λex = 390 nm, λem = 460 nm) was measured on a BMG LABTECH POLARstar OPTIMA plate reader (BMG Labtechnologies, Germany).10 hHDAC8: Enzyme was obtained from cooperation partners (Romier).11 Assay was performed as described before. […] After incubation (30 min at 37 °C) fluorescence signal was determined as mentioned for HDAC1/6.12 […]
Cell proliferation was determined by using the Celltiter 96 AQueous nonradioactive Proliferation Assay (Promega). After 72h of incubation time with inhibitor or DMSO, 20 µL of a mixture (20:1) consisting of MTS (3-(4,5-dimethylthiazol-2-yl)-5-(3-carboxymethoxyphenyl)-2-(4-sulfophenyl-2H-tetrazolium) and PMS (phenazine methosulfate) were added to each well. Absorption was measured after another 2-4 h with a BMG LABTECH POLARstar OPTIMA plate reader (BMG Labtechnologies, Germany).
Experiments were performed in triplicates and GI50 values were calculated using the software Origin 2019. […]
CO2. […] After another 20 min of incubation, the fluorescence signal (λex = 390 nm, λem = 460 nm) was measured on a BMG LABTECH POLARstar OPTIMA plate reader (BMG Labtechnologies, Germany). […]
On the technique in general: Formazan colour is commonly taken as a measure of viable cells.

T1 sequence (Q13547 whole entry): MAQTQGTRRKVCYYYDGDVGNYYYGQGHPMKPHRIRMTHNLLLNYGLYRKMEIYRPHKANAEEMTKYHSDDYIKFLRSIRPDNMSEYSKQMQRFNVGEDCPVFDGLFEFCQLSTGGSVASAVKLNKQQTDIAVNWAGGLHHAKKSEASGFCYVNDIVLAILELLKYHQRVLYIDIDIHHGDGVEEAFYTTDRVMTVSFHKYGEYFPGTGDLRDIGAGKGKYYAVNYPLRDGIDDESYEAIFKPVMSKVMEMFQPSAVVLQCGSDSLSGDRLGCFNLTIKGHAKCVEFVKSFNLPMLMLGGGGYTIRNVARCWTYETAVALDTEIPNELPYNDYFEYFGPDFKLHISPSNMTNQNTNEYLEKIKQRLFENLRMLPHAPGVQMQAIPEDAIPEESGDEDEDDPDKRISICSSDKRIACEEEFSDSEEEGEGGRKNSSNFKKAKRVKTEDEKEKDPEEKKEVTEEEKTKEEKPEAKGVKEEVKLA

By IC50 is commonly meant the concentration needed to halve the response being measured. `CCCC[C@H]1NC(=O)C[C@@H](/C=C/CCSC(C)=O)OC(=O)C[C@H](O)[C@@H]([C@@H](C)CC)NC(=O)[C@@H](C)NC1=O` [compound 33]: the IC50 at human recombinant HDAC1 is 12.3 ± 1.6 nM. Also, the “GI50 (in words)” value in the assay on HeLa cells is on record as “nanomolar”.

`CCCC[C@H]1NC(=O)C[C@@H](/C=C/CCSC(C)=O)OC(=O)C[C@H](O[Si](C)(C)C(C)(C)C)[C@@H]([C@@H](C)CC)NC(=O)[C@@H](C)NC1=O` [compound 32]: at human recombinant HDAC1, the IC50 came to 18700 ± 8900 nM. In addition, the “GI50 (in words)” value with HeLa cells is on record as “micromolar”.

As usually defined, the inhibition is the relative decrease from the control value, in per cent. For `CCCC[C@H]1NC(=O)C[C@@H](/C=C/CCC(=O)NO)OC(=O)C[C@H](O)[C@@H]([C@@H](C)CC)NC(=O)[C@@H](C)NC1=O` [compound 8], the IC50 at human recombinant HDAC1 stood at 28 ± 2 nM. Moreover, in the assay on HeLa cells (Homo sapiens, 5 μM, read-out: inhibition of cell growth at 5 μM), the inhibition at 5 µM was found to be 30%.
